System: Scirpus juncoides
Experiment: Paddy pot test, herbicidal effect on Scirpus juncoides
Format: in vivo
Design: scale not given here
Conditions: Screening, 63 g/ha, examined after 3 weeks
Method: (§1) Plastic pots having an area of 100 cm^2 and a depth of 10 cm were filled with paddy soil which is puddled by adding water, and seeds of Echinochloa crus-galli and Scirpus juncoides were planted in the pots. After seeding, rice plants at the 2.5-leaf stage were transplanted and the pots were filled with water. The rice plants were grown in a greenhouse. […] The herbicidal effects and harmful effects on the rice plants were examined after 3 weeks. Herbicidal effects were examined according to the examination criteria described below and were represented by the herbicidal index. [table] […] [formula]
For `COC(=O)Oc1c(C(=O)c2ccc(OC)c(N=S3(=O)CCCCC3)c2Cl)cnn1C` [Example 104], the “Scripus juncoides (herbicidal index)” value was 9.
In the case of `COC(=O)c1ccc(C(=O)c2cnn(C)c2OC(=O)SC(C)(C)C)c(Cl)c1N=S1(=O)CCCCC1` [Example 203], the “Scripus juncoides (herbicidal index)” value is reported as 7.
With `COc1ccc(C(=O)c2cnn(C)c2OS(=O)(=O)c2ccc(C)cc2)c(Cl)c1N=S1(=O)CCCCC1` [Example 106] the “Scripus juncoides (herbicidal index)” value was 8.

System: Echinochloa crus-galli
Experiment: Paddy pot test, herbicidal effect on Echinochloa crus-galli
Format: in vivo
Design: scale not given here
Conditions: Screening, 63 g/ha, applied at 1.5-leaf stage, examined after 3 weeks
Method: as §1
With `COC(=O)Oc1c(C(=O)c2ccc(OC)c(N=S3(=O)CCCCC3)c2Cl)cnn1C` [Example 104] the “Echinochloa crus-galli (herbicidal index)” value was 10.
For `COC(=O)c1ccc(C(=O)c2cnn(C)c2OC(=O)SC(C)(C)C)c(Cl)c1N=S1(=O)CCCCC1` [Example 203], the “Echinochloa crus-galli (herbicidal index)” value was 10.
In the case of `COc1ccc(C(=O)c2cnn(C)c2OS(=O)(=O)c2ccc(C)cc2)c(Cl)c1N=S1(=O)CCCCC1` [Example 106], the “Echinochloa crus-galli (herbicidal index)” value is reported as 10.

System: not given
Experiment: not given
Conditions: not given
`O=C1CCCC(O)=C1C(=O)c1ccc(-c2ccccc2)c(N=S2(=O)CCCCC2)c1Cl` [Example 23] gave a melting point of 166 to 168 °C.
Compound `COC(=O)c1ccc(C(=O)c2cnn(C)c2O)c(Cl)c1N=S1(=O)CCOCC1` [Example 25] has a melting point of 147 to 149 °C.
Work on `Cn1ncc(C(=O)c2ccc(OCS(C)(=O)=O)c(N=S3(=O)CCCCC3)c2Cl)c1O` [Example 241] yielded a melting point of 104 to 106 °C.
Compound `CSc1ccc(C(=O)C2=C(O)CCCC2=O)c(Cl)c1N=S1(=O)CCCCC1` [Example 41] has a melting point of 178 to 180 °C.
`CCCOc1ccc(C(=O)c2cnn(C)c2O)c(Cl)c1N=S1(=O)CCCCC1` [Example 254] showed a melting point of 85 to 87 °C.
`CCn1ncc(C(=O)c2ccc(C(=O)OC)c(N=S3(=O)CCOCC3)c2Br)c1O` [Example 74] showed a melting point of 210 to 215 °C.
Work on `CCOc1ccc(C(=O)c2cnn(C)c2O)c(OC)c1N=S1(=O)CCCCC1` [Example 175] yielded a melting point of 109 to 111 °C.
`CC(=O)Oc1ccc(C(=O)c2cnn(C)c2O)c(Cl)c1N=S1(=O)CCCCC1` [Example 189] gave a melting point of 135 to 139 °C.
In the case of `COc1ccc(C(=O)C2=C(O)CCCC2=O)c(Cl)c1N=S(C)(=O)c1cccs1` (stereo not drawn) [Example 194], the melting point is reported as 159 to 162 °C.
Work on `CON=Cc1ccc(C(=O)c2cnn(C)c2O)c(Cl)c1N=S1(=O)CCCCC1` [Example 55] yielded a melting point of 98 to 105 °C.
Work on `Cn1ncc(C(=O)c2ccc(-c3cccs3)c(N=S3(=O)CCCCC3)c2Cl)c1O` [Example 214] yielded a melting point of 158 to 164 °C.
`COc1ccc(C(=O)c2cnn(C)c2OCC(F)(F)F)c(Cl)c1N=S1(=O)CCCCC1` [Example 235] showed a melting point of 131 to 132 °C.
For `COc1ccc(C(=O)c2cnn(C)c2OC(=O)C2CC2)c(Cl)c1N=S1(=O)CCCCC1` [Example 246], the melting point was 129 to 131 °C.
`COC(=O)c1ccc(C(=O)c2cnn(C)c2O)cc1N=S1(=O)CCCCC1` [Example 96] showed a melting point of 133 to 137 °C.
With `COc1ccc(C(=O)c2cnn(C)c2O)c(Cl)c1N=S(C)(=O)c1ccccc1` (stereo not drawn) [Example 249] the melting point was 88 to 91 °C.
Compound `Cn1ncc(C(=O)c2ccc(OCCC3OCCO3)c(N=S3(=O)CCCCC3)c2Cl)c1O` [Example 199] has a melting point of 99 to 101 °C.
Work on `COC(=O)/C=C/c1ccc(C(=O)c2cnn(C)c2O)c(Cl)c1N=S1(=O)CCCCC1` [Example 91] yielded a melting point of 145 to 150 °C.
In the case of `Cn1ncc(C(=O)c2cccc(N=S3(=O)CCCCC3)c2Cl)c1O` [Example 39], the melting point is reported as 177 to 179 °C.
`CCOc1c(C(=O)c2cnn(CC)c2O)ccc(OC)c1N=S1(=O)CCCCC1` [Example 163] gave a melting point of 124 to 126 °C.
`COCCOCOc1ccc(C(=O)c2cnn(C)c2O)c(Cl)c1N=S1(=O)CCCCC1` [Example 259] gave a melting point of 77 to 79 °C.
In the case of `COC(=O)c1ccc(C(=O)C2=C(O)CCCC2=O)c(Cl)c1N=S(C)(C)=O` [Example 160], the melting point is reported as 135 to 137 °C.
Compound `CSc1c(C(=O)c2cnn(C)c2O)ccc(C(F)(F)F)c1N=S1(=O)CCCCC1` [Example 169] has a melting point of 155 to 157 °C.
With `O=C1CCCC(O)=C1C(=O)c1ccc(OCc2ccccc2)c(N=S2(=O)CCCCC2)c1Cl` [Example 65] the melting point was 152 to 155 °C.
Work on `COc1ccc(C(=O)c2cnn(C)c2O)c([N+](=O)[O-])c1N=S1(=O)CCCCC1` [Example 76] yielded a melting point of 179 to 181 °C.
In the case of `COc1ccc(C(=O)C2=C(O)CCCC2=O)c(OC)c1N=S1(=O)CCCCC1` [Example 92], the melting point is reported as 129 to 131 °C.
`Cc1ccc(C(=O)c2cnn(C)c2O)c(C)c1N=S(C)(C)=O` [Example 168] showed a melting point of 133 to 135 °C.
Compound `C#CCOc1ccc(C(=O)c2cnn(C)c2O)c(Cl)c1N=S1(=O)CCCCC1` [Example 205] has a melting point of 169 to 171 °C.
Compound `COC(=O)c1ccc(C(=O)c2cnn(C)c2O)c(Br)c1N=S1(=O)CCOCC1` [Example 69] has a melting point of 158 to 164 °C.
In the case of `COc1ccc(C(=O)C(C#N)C(=O)C2CC2)c(Cl)c1N=S1(=O)CCCCC1` (stereo not drawn) [Example 5], the melting point is reported as 154 to 156 °C.
`CC(C)Oc1ccc(C(=O)c2cnn(C)c2O)c(Cl)c1N=S1(=O)CCCCC1` [Example 16] showed a melting point of 139 to 141 °C.
With `Cn1ncc(C(=O)c2ccc(O)c(N=S3(=O)CCCCC3)c2Cl)c1O` [Example 233] the melting point was 165 to 167 °C.
Work on `Cn1ncc(C(=O)c2cccc(N=S3(=O)CCCCC3)c2F)c1O` [Example 170] yielded a melting point of 162 to 164 °C.
Compound `CCS(=O)(CC)=Nc1c(C)ccc(C(=O)c2cnn(C)c2O)c1C` [Example 167] has a melting point of 126 to 128 °C.
Work on `CC(=O)c1ccc(C(=O)c2cnn(C)c2O)c(Cl)c1N=S1(=O)CCCCC1` [Example 255] yielded a melting point of 100 to 104 °C.
Compound `COCc1ccc(C(=O)c2cnn(C)c2O)c(Cl)c1N=S1(=O)CCCCC1` [Example 52] has a melting point of 78 to 82 °C.
In the case of `CSCOc1ccc(C(=O)c2cnn(C)c2O)c(Cl)c1N=S1(=O)CCCCC1` [Example 238], the melting point is reported as 112 to 114 °C.
In the case of `COc1ccc(C(=O)c2cnn(C)c2O)c(Cl)c1N=S(C)(=O)c1cccs1` (stereo not drawn) [Example 192], the melting point is reported as 90 to 92 °C.
`CCOc1c(C(=O)c2cnn(C)c2O)ccc(OC)c1N=S1(=O)CCCCC1` [Example 156] showed a melting point of 111 to 113 °C.
Compound `COC(=O)c1ccc(C(=O)c2cnn(C)c2O)c(Cl)c1N=S1(=O)CCCCC1` [Example 21] has a melting point of 204 to 206 °C.
Compound `CCn1ncc(C(=O)c2ccc(OC)c(N=S3(=O)CCCCC3)c2[N+](=O)[O-])c1O` [Example 77] has a melting point of 190 to 192 °C.
With `Cn1ncc(C(=O)c2ccc(-c3ccco3)c(N=S3(=O)CCCCC3)c2Cl)c1O` [Example 228] the melting point was 97 to 103 °C.
For `N#Cc1ccc(C(=O)C2=C(O)CCCC2=O)c(Cl)c1N=S1(=O)CCCCC1` [Example 186], the melting point was 124 to 126 °C.
`Cn1ncc(C(=O)c2ccc(OCC(F)(F)C(F)(F)F)c(N=S3(=O)CCCCC3)c2Cl)c1O` [Example 242] showed a melting point of 106 to 108 °C.
Compound `COCCOc1ccc(C(=O)c2cnn(C)c2O)c(Cl)c1N=S1(=O)CCCCC1` [Example 212] has a melting point of 153 to 155 °C.
Work on `COc1ccc(C(=O)c2c(C3CC3)nn(C)c2O)c(Cl)c1N=S1(=O)CCCCC1` [Example 56] yielded a melting point of 145 to 147 °C.
With `Cn1ncc(C(=O)c2ccc(C#N)c(N=S3(=O)CCCCC3)c2Cl)c1O` [Example 44] the melting point was 192 to 196 °C.
Compound `CCS(=O)(CC)=Nc1c(OC)ccc(C(=O)c2cnn(C)c2O)c1OC` [Example 140] has a melting point of 96 to 98 °C.
In the case of `Cn1ncc(C(=O)c2ccc(OC3CCCC3)c(N=S3(=O)CCCCC3)c2Cl)c1O` [Example 49], the melting point is reported as 145 to 148 °C.
Work on `Cn1ncc(C(=O)c2ccc(OCC3CC3)c(N=S3(=O)CCCCC3)c2Cl)c1O` [Example 215] yielded a melting point of 188 to 190 °C.
`CSC(=O)Oc1c(C(=O)c2ccc(OCCC3OCCO3)c(N=S3(=O)CCCCC3)c2Cl)cnn1C` [Example 200] gave a melting point of 159 to 161 °C.
In the case of `CCn1ncc(C(=O)c2ccc(C(=O)OC)c(N=S3(=O)CCCCC3)c2Cl)c1O` [Example 30], the melting point is reported as 201 to 203 °C.
`Cn1ncc(C(=O)c2ccc(OC[S+](C)[O-])c(N=S3(=O)CCCCC3)c2Cl)c1O` (stereo not drawn) [Example 245] gave a melting point of 95 to 97 °C.
In the case of `CCS(=O)(CC)=Nc1c(C(=O)OC)ccc(C(=O)c2cnn(C)c2O)c1Cl` [Example 26], the melting point is reported as 69 to 73 °C.
For `CCn1ncc(C(=O)c2ccc(OC)c(N=S3(=O)CCCCC3)c2Cl)c1O` [Example 4], the melting point was 137 to 139 °C.
With `Cn1ncc(C(=O)c2ccc(Oc3ccccc3)c(N=S3(=O)CCCCC3)c2Cl)c1O` [Example 180] the melting point was 134 to 137 °C.
Work on `CC(=O)OCc1ccc(C(=O)c2cnn(C)c2O)c(Cl)c1N=S1(=O)CCCCC1` [Example 83] yielded a melting point of 64 to 68 °C.
With `COc1ccc(C(=O)c2cnn(C(C)(C)C)c2O)c(Cl)c1N=S1(=O)CCCCC1` [Example 88] the melting point was 200 to 202 °C.
For `CSc1ccc(C(=O)c2cnn(C)c2O)c(Cl)c1N=S1(=O)CCCCC1` [Example 42], the melting point was 157 to 159 °C.
In the case of `CCOC(=O)c1ccc(C(=O)c2cnn(C)c2O)c(Cl)c1N=S1(=O)CCCCC1` [Example 47], the melting point is reported as 88 to 91 °C.
For `COc1ccc(C(=O)c2cnn(C)c2O)c(Br)c1N=S1(=O)CCCCC1` [Example 223], the melting point was 144 to 146 °C.
`COCOc1ccc(C(=O)c2cnn(C)c2O)c(Cl)c1N=S1(=O)CCCCC1` [Example 221] gave a melting point of 93 to 95 °C.
With `CCOc1ccc(C(=O)c2cnn(C)c2O)c(Cl)c1N=S1(=O)CCCCC1` [Example 12] the melting point was 88 to 90 °C.
With `COc1ccc(C(=O)c2cnn(C)c2O)c(OC)c1N=S1(=O)CCCCC1` [Example 99] the melting point was 116 to 118 °C.
Work on `Cn1ncc(C(=O)c2cccc(N=S3(=O)CCCCC3)c2)c1O` [Example 35] yielded a melting point of 112 to 113 °C.
`Cn1ncc(C(=O)c2ccc(OCC(F)(F)F)c(N=S3(=O)CCCCC3)c2Cl)c1O` [Example 144] gave a melting point of 97 to 99 °C.
`Cn1ncc(C(=O)c2ccc(OCc3ccccc3)c(N=S3(=O)CCCCC3)c2Cl)c1O` [Example 66] showed a melting point of 95 to 97 °C.

System: rice plants
Experiment: Paddy pot test, harmful effects on transplanted rice plants
Format: in vivo
Design: scale not given here
Conditions: Screening, 63 g/ha, applied at Echinochloa crus-galli 1.5-leaf stage, examined after 3 weeks
Method: as §1
With `COC(=O)Oc1c(C(=O)c2ccc(OC)c(N=S3(=O)CCCCC3)c2Cl)cnn1C` [Example 104] the “Rice (harmful effects on the rice plants, index)” value was 0.
With `COC(=O)c1ccc(C(=O)c2cnn(C)c2OC(=O)SC(C)(C)C)c(Cl)c1N=S1(=O)CCCCC1` [Example 203] the “Rice (harmful effects on the rice plants, index)” value was 0.
In the case of `COc1ccc(C(=O)c2cnn(C)c2OS(=O)(=O)c2ccc(C)cc2)c(Cl)c1N=S1(=O)CCCCC1` [Example 106], the “Rice (harmful effects on the rice plants, index)” value is reported as 0.

Source: US20110144345A1, “SULFOXYIMINO-SUBSTITUTED BENZOYL DERIVATIVE AND HERBICIDE” (NIPPON SODA CO., LTD., priority 2008, published 2011)
